# Laboratory results reported in patent US9938238B2, “Anti-auxin compounds” (priority 2015, dated 2018).
# Entries after “also recorded” stand apart in the source; their conditions may differ.
# What was measured:
# DR5::GUS = assay: GUS analysis of auxin responsive DR5::GUS reporter line; format: in vivo, Arabidopsis
# Description: GUS analysis of DR5::GUS lines was performed as previously described (Ni et al., 2001).
# Auxin responsiveness has also been assessed using the Arabidopsis DR5::GUS transgenic line in which several auxin response elements are fused upstream of the GUS reporter gene (Ni et al., 2001). Normally, treatment of DR5::GUS lines with exogenous auxin leads to increased GUS levels, which can be visualized through accumulation of blue color upon adding X-Gluc.
# Col-0 wt seedlings [1] = assay: Blockage of auxin dependent inhibition of root growth; format: in vivo, Arabidopsis
# Description: For screening for chemicals that reduce ethylene response, Arabidopsis ctr1-3 seeds were planted on a microtiter plate containing PNS media in the presence of individual chemicals (50 μM concentration of each) from the Microsource Spectrum Collection. Seedlings were grown in the dark for 4 d after which they were scored for manifestation of the ethylene responsive triple response. For all other growth experiments, seedlings were planted on PNS media supplemented with the relevant chemical (Deslauriers and Larsen, 2010). For conditions requiring pamoic acid, media was supplemented with Pamoic acid disodium salt (Sigma Life Science, St. Louis, Mo.). Measurement of ethylene production was conducted as previously described (Deslauriers and Larsen, 2010). […]
# Col-0 wt seedlings [2] = assay: Seedling triple response of ethylene-treated etiolated Col-0 wt seedlings; format: in vivo, Arabidopsis
# Description: (§1) For screening for chemicals that reduce ethylene response, Arabidopsis ctr1-3 seeds were planted on a microtiter plate containing PNS media in the presence of individual chemicals (50 μM concentration of each) from the Microsource Spectrum Collection. Seedlings were grown in the dark for 4 d after which they were scored for manifestation of the ethylene responsive triple response. For all other growth experiments, seedlings were planted on PNS media supplemented with the relevant chemical (Deslauriers and Larsen, 2010). For conditions requiring pamoic acid, media was supplemented with Pamoic acid disodium salt (Sigma Life Science, St. Louis, Mo.). Measurement of ethylene production was conducted as previously described (Deslauriers and Larsen, 2010).
# For Col-0 wt, seedlings were grown in either the presence or absence of 5 μM AgNO3, an inhibitor of ethylene perception, or 100 μL L^−1 ethylene, which is a concentration that results in maximal response in etiolated seedlings. […] It should be noted that the phenotype of PA-treated seedlings in the presence of saturating ethylene is strikingly similar to ethylene-treated wei8 and tart loss-of-function mutants, which are deficient in auxin biosynthesis (Stepanova et al., 2008).
# [3] = test system: etiolated Col-0 wt seedlings; assay: Measurement of ethylene biosynthesis by gas chromatography; format: in vivo, Arabidopsis
# Description: as §1
# Col-0 wt seedlings [4] = assay: Root gravitropism on vertical agar plates; format: in vivo, Arabidopsis
# TIR1-IAA7 complex = target: T1, TIR1-IAA7 complex (Arabidopsis thaliana, UniProt Q570C0); assay: In vitro assembly of the TIR1-IAA7 complex in the presence of auxin; format: biochemical
# T1 sequence (Q570C0 1-594): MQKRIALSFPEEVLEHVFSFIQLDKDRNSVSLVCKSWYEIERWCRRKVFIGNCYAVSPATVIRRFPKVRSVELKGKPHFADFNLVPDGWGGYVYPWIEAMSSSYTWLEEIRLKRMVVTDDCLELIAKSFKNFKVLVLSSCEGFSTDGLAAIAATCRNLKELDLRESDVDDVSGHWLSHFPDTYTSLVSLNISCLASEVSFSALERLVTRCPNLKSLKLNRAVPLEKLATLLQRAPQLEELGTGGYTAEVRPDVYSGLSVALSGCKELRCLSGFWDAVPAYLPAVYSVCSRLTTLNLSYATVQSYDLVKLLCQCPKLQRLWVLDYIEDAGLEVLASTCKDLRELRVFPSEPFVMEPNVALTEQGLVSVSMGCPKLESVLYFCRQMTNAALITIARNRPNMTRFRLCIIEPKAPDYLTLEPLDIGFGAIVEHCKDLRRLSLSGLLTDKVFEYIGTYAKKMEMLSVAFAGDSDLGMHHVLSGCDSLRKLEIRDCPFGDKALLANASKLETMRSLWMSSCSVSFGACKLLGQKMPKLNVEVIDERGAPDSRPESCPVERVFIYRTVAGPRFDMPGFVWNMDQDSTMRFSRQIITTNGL
# Description: It should be noted that based on our growth analysis with various loss-of-function mutants for auxin receptors, it is likely that one or more of the other receptors are affected to a greater extent than TIR1 by each of these chemicals.
# ctr1-3 seedlings = assay: Seedling triple response of constitutive ethylene response mutant ctr1-3 (library screen and follow-up); format: in vivo, Arabidopsis
# Description: as §1
# A chemical library screen was performed in which etiolated seedlings of the constitutive ethylene response mutant, ctr1-3, were grown in air for 4 d in the presence of chemicals from the Microsource Spectrum Collection, a bioactive and natural compound library consisting of 2000 different compounds. ctr1-3 seedlings were scored for presentation of the ethylene regulated seedling triple response, consisting of severe hypocotyl and root shortening and exaggerated apical hook formation.
# [5] = test system: Col-0 wt, tir1-1, afb1-5, afb2-3, afb3-5, afb4-1 seedlings; assay: Hypocotyl and root elongation of auxin receptor loss-of-function mutants; format: in vivo, Arabidopsis; settings: tir1-1, increasing range of Tolmetin
# Description: Loss of proper auxin signaling as in the dominant shy2-2 mutant (Tian et al., 2003), which fails to have proper turnover of the IAA3 repressor of auxin response, leads to severe hypocotyl shortening for etiolated seedlings (Robles et al., 2012). […] It was of interest to determine what effect PA might have on hypocotyl and root elongation for loss-of-function mutants representing members of the Arabidopsis family of auxin receptors. It was predicted that mutants for receptors with a more prominent role in auxin dependent maintenance of organ elongation would be more severely affected by PA treatment due to the additive effect of the loss-of-function mutation with the effect of this anti-auxinic compound.
# For analysis of the role of the various receptors in hypocotyl elongation, Col-0 wt and loss-of-function mutants for all of the auxin receptors (Si-Ammour et al., 2011) except AFB5 were grown for 4 d in the dark in the absence or presence of 30 μM PA on media supplemented with 5 μM AgNO3, which was included to eliminate the negative effect of ethylene on hypocotyl elongation.
# A similar result was found for tir1-1 roots. For this experiment, seedlings were grown in the dark for 4 d in the absence or presence of 30 μM PA after which root length was measured. […] This was confirmed by analysis of growth of Col-0 wt and tir1-1 roots across a range of PA concentrations.
# Col-0 wt seedlings [6] = assay: Root length dose response; format: in vivo, Arabidopsis
# Description: as §1
# Auxin is required for normal root growth since at physiological concentrations it promotes cell elongation.
# [7] = 5 days in the light, 50 micromolar Tolmetin (FIG. 7)
# [8] = etiolated ctr1-3 in air, 4 d, 50 μM of each chemical
smiles,measurement,setting,value
Cc1ccc(C(=O)c2ccc(CC(=O)O)n2C)cc1 [Tolmetin],dark color (GUS) in the absence of exogenous auxin,"DR5::GUS; 0 versus 100 micromolar Tolmetin, no exogenous auxin (FIG. 8)",comparable level of dark color
same,staining / auxin dependent lateral root formation,"DR5::GUS; 100 μM Tolmetin, 750 nM IAA (FIG. 8)",prevented staining in the area of lateral root development; also recorded: completely blocks auxin dependent lateral root formation
same,auxin dependent accumulation of GUS in root tips,"DR5::GUS; 100 μM Tolmetin, exposure to IAA",blocked auxin dependent accumulation of GUS in root tips
same,inhibitory effect of Tolmetin on root length on addition of IAA,"Col-0 wt seedlings [1]; 5 days, 50 micromolar Tolmetin plus 300 nM IAA (FIG. 6)",almost completely overcome
same,"root length, Tolmetin alone","Col-0 wt seedlings [1]; 5 days, 50 micromolar Tolmetin, 0 nM IAA (FIG. 6)",significant root growth inhibition
same,"root length, anti-auxin alone","Col-0 wt seedlings [1]; light, 7 d, 30 μM PA or 50 μM Tolmetin alone versus untreated roots",significantly inhibited
same,inhibitory effects of exogenous auxin on root length,"Col-0 wt seedlings [1]; light, 7 d, 30 μM PA with 150 nM NAA, 50 μM Tolmetin with 300 nM IAA",greatly reduced the inhibitory effects of exogenous auxin
same,seedling length independent of ethylene,"Col-0 wt seedlings [2]; Col-0 wt with 5 μM AgNO3, 4 d dark, 10 μM PA or Tolmetin up to 30 μM",negative effect was not seen
same,manifestation of the ethylene dependent seedling triple response (loss of apical hook formation),"Col-0 wt seedlings [2]; Tolmetin 20-100 micromolar, Col-0 wt treated with saturating ethylene (FIG. 1)",partially blocks
same,apical hook formation,"Col-0 wt seedlings [2]; etiolated Col-0 wt, 100 μL L−1 (saturating) ethylene, 4 d dark, 10 μM PA or Tolmetin up to 30 μM",prevent apical hook formation; also recorded: nearly complete loss of apical hook formation
same,root length / organ specificity of effect in ethylene treated seedlings,"Col-0 wt seedlings [2]; etiolated Col-0 wt, saturating ethylene, 4 d dark, 10 μM PA or Tolmetin up to 30 μM",specific to hypocotyls
same,ethylene biosynthesis,"[3]; 10 μM PA or 30 μM Tolmetin, 96 h, ethylene generated in the last 18 h",no measurable effect on ethylene biosynthesis
same,ethylene biosynthesis,"[3]; 50 micromolar Tolmetin, 4 days in the dark (FIG. 4)",does not reduce ethylene biosynthesis
same,direction of root growth (gravitropism),"Col-0 wt seedlings [4]; 4 d, vertical agar plates, 30 μM PA or 50 μM Tolmetin",grew in a random manner that was independent of gravity
same,direction of root growth (gravitropism),Col-0 wt seedlings [4]; [7],agravitropic root growth
same,root hairs,Col-0 wt seedlings [4]; [7],completely lacked root hairs
same,blockage of assembly of the TIR1-IAA7 complex,TIR1-IAA7 complex,not been possible to demonstrate
same,ethylene-dependent root growth inhibition,"ctr1-3 seedlings; ctr1-3, 10 μM PA or 30 micromolar Tolmetin",did not prevent the severe root growth inhibition; also recorded: does not affect ethylene-dependent root growth inhibition
same,root growth of light grown ctr1-3,"ctr1-3 seedlings; ctr1-3 grown in the light, increasing concentrations of Tolmetin (FIG. 3)",No positive effect on root growth was observed
same,apical hook formation,"ctr1-3 seedlings; dark grown ctr1-3, 10 μM PA or 30 μM Tolmetin",prevent apical hook formation; also recorded: fully eliminated apical hook formation; also recorded: nearly complete loss of apical hook formation
same,apical hook formation in chemical library screen,ctr1-3 seedlings; [8],blocked apical hook formation
same,root length in chemical library screen,ctr1-3 seedlings; [8],measurably longer roots
same,root growth sensitivity of tir1-1,[5],hypersensitive
same,root length at increasing concentrations,"Col-0 wt seedlings [6]; Col-0 wt, 7 d, increasing concentrations, versus untreated control roots",severe inhibition of root length
same,root growth at low concentrations,"Col-0 wt seedlings [6]; Col-0 wt, 7 d, low concentrations",stimulatory effect
same,root length,"Col-0 wt seedlings [6]; light, increasing concentrations of Tolmetin, 5 days (FIG. 5)",inhibitory to root growth at high concentrations
